Laboratory results reported in patent publication US20080031811A1, “Method For Preparing Radioactive Film” (DONG WHA PHARM. IND. CO., LTD., priority 2004, published 2008).

Assay: Thermal characteristic of film (TGA)
Assay type: physicochemical
Conditions: measured at 500° C.
Procedure: The behavior of thermal change according to temperature change in holmium nitrate, polyurethane film, and holmium-165 polyurethane film (Example 13) is measured by using a thermogravimetric analyzer (TGA, […], Germany) and a differential scanning calorimetry (DSC, […], Germany). TGA analyzes the changes in the mass of a substance according to temperature by a thermal decomposition curve. The analysis conditions of TGA are as follows; 30˜600° C. of temperature, 5.0 mg of a substance, 10° C./min of heating rate. Calorie change of a substance according to temperature change is measured by DSC. DSC is measured at the same condition as TGA and the sample is sealed in an aluminum pan under nitrogen atmosphere.

For O=[N+]([O-])[O-].O=[N+]([O-])[O-].O=[N+]([O-])[O-].[Ho+3] [holmium nitrate, ^165Ho(No3)3.5H2O], which “Residual weight % after decomposition” value is on record?
The value was 37%.
